According to US9090667B2, “Cyclic peptide from Nonomuraea sp., process for the production thereof, and pharmaceutical composition for the prevention or treatment of mycobacteria related disease comprising the same” (priority 2011, dated 2015):
Converted amounts (≈) assume the structure as drawn. Read-outs that look alike come from different tables or passages of the source. Numbered stars: 1 amine (or outer) side, 2 acyl side, 3 side chain; on linkers, the order of the positions; unused ones are H or OH. Bridge positions count the residues as written; N and C are the ends. Square brackets hold non-standard residues; d marks the D form. Peptide text beside a SMILES is read from it. * marks the point of attachment. ξ: configuration not given here. NMeTrp(4-OMe) = CN[CH](Cc1c[nH]c2cccc(OC)c12)C(=O)O; X1 = O=C(C(N[*:1])C(O)c1ccccc1)[*:2]; NMeI = CC[CH](C)[CH](NC)C(=O)O; ξNMe2Val = CC(C)C(C(=O)*)N(C)C; NMeT = CN[CH](C(=O)O)[CH](C)O; NMeL = CN[CH](CC(C)C)C(=O)O; NMeV = CN[CH](C(=O)O)C(C)C

What was measured:
[1] = system: Nonomuraea sp. MJM5123; assay: Antibiotic resistance test of the producing strain; type: cell-based; conditions: ISP2 medium, 2 weeks at 28° C.; for Growth in the presence of antibiotics: 50 μg/ml
Description: To test for melanoid pigments, peptone yeast extract iron agar (ISP6) and tyrosine agar (ISP7, with or without tyrosine) was used. Temperature range, NaCl tolerance and pH range for growth was determined on ISP3 medium and antibiotic resistance test was performed on ISP2 medium for 2 weeks at 28° C.

[2] = system: M. tuberculosis H37Rv; assay: Aerobic MBC99; type: cell-based, Mycobacterium tuberculosis; conditions: for classification from MBC99 versus MIC: MBC99 approximately two-fold higher than MIC; for MBC99: aerobic, H37Rv, minimum concentration that kills 99% of organisms
[3] = system: nonreplicating M. tuberculosis; type: cell-based, Mycobacterium tuberculosis; conditions: for concentration effecting a 99% reduction in viability (MBC under low oxygen): 10 days incubation under non-replicating conditions, cfu readout; for concentration reducing viability of non-replicating M. tuberculosis by one log10: LORA
[4] = system: Candida albicans; assay: Antibacterial selectivity MIC; type: cell-based; conditions: C. albicans; for activity: at 31 μM
Description: (§1) Selectivities of H-14 and H-16 were determined by screening them against Escherichia coli, a Gram-negative bacterium, Staphylococcus aureus, a Gram-positive bacterium, Candida albicans, a yeast, and six mycobacterial species (Table 16).

[5] = system: Escherichia coli; assay: Antibacterial selectivity MIC; type: cell-based; conditions: E. coli; for activity: at 31 μM
Description: as §1

[6] = system: Staphylococcus aureus; assay: Antibacterial selectivity MIC; type: cell-based; conditions: S. aureus; for activity: at 31 μM
Description: as §1

[7] = system: M. smegmatis; assay: Antibacterial selectivity MIC; type: cell-based, Mycobacterium smegmatis; conditions: compared with M. tuberculosis
Description: as §1

[8] = system: M. abscesses; assay: Antibacterial selectivity MIC; type: cell-based, Mycobacterium abscessus; conditions: for activity: M. abscesses, compared with the other mycobacteria; for MIC: M. abscessus
Description: as §1

[9] = system: Vero cells; assay: Toxicity against mammalian cells (Vero); type: cell-based, African green monkey; conditions: for IC50: Vero cells, read-out: Vero cell IC50; for in vitro mammalian cell toxicity: at 100-fold their MBC; for cytotoxicity: highest testing concentration (32 μM)
Description: Cytoxicities of H-14 and H-16 against mammalian cells were evaluated by testing against Vero cells, an African green monkey kidney cell line (Table 18). No cytoxicity was found for either compound at even the highest testing concentration (32 μM).

[10] = system: M. tuberculosis H37Rv
[11] = system: M. tuberculosis X003899; conditions: IndoOceanic clade, strain X003899
[12] = system: M. tuberculosis X004439; conditions: East Asian clade, strain X004439
[13] = system: M. tuberculosis X004244; conditions: East Asian clade, strain X004244
[14] = system: M. tuberculosis X005282; conditions: Euro-American clade, strain X005282
[15] = system: M. tuberculosis X005319; conditions: Euro-American clade, strain X005319
[16] = system: M. tuberculosis X001354; conditions: East African Indian clade, strain X001354
[17] = system: M. tuberculosis H37Rv; assay: microbe, parasite or virus in culture; conditions: Mycobacterium tuberculosis
[18] = system: M. tuberculosis H37Pv; type: cell-based, Mycobacterium tuberculosis
[19] = aerobic, replicating M. tuberculosis H37Rv, concentration inhibiting growth by 90%

## NC[C@H]1O[C@H](O[C@H]2[C@H](O)[C@@H](O[C@H]3O[C@H](CO)[C@@H](O)[C@H](N)[C@H]3O)[C@H](N)C[C@@H]2N)[C@H](O)[C@@H](O)[C@@H]1O [Kanamycin]
[1]
  Growth in the presence of antibiotics: −

## CC1(C)S[C@@H]2[C@H](NC(=O)[C@H](N)c3ccccc3)C(=O)N2[C@H]1C(=O)O [Ampicillin]
[1]
  Growth in the presence of antibiotics: +
  susceptibility of MJM5123 to the antibiotic: resistant

## C=C(NC(=O)C(=C)NC(=O)c1csc(C2=N[C@@H]3c4csc(n4)[C@H]4NC(=O)c5csc(n5)[C@H]([C@](C)(O)[C@@H](C)O)NC(=O)[C@H]5CSC(=N5)/C(=C/C)NC(=O)[C@H]([C@@H](C)O)NC(=O)c5csc(n5)[C@]3(CC2)NC(=O)[C@H](C)NC(=O)C(=C)NC(=O)[C@H](C)NC(=O)[C@H]([C@@H](C)CC)N[C@@H]2C=Cc3c([C@H](C)O)cc(nc3[C@H]2O)C(=O)O[C@@H]4C)n1)C(N)=O [Thiostrepton]
[1]
  Growth in the presence of antibiotics: −
  susceptibility of MJM5123 to the antibiotic: susceptible

## CCC(C)C(C(=O)NC1C(=O)N(C)C(C(C)O)C(=O)NC(C(C)C)C(=O)N(C)C(CC(C)C)C(=O)NC(C(C)C)C(=O)N(C)C(C(C)C)C(=O)N(C)C(Cc2c[nH]c3cccc(OC)c23)C(=O)NC(C(C)C)C(=O)NC(Cc2ccccc2)C(=O)NC(C(C)C)C(=O)OC1C)N(C)C(=O)C(NC(=O)C(C(C)C)N(C)C)C(C)C (stereo not shown) [H-16] (ξNMe2Val-V[NMeI]T[NMeT]V[NMeL]V[NMeV][NMeTrp(4-OMe)]VFV; ester 3-C; configuration not given here)
[2]
  classification from MBC99 versus MIC: bactericidal
  MBC99: 0.19 µM (≈ 0.301 µg/mL)
[3]
  concentration effecting a 99% reduction in viability (MBC under low oxygen): approximately 1.5 μM
  concentration reducing viability of non-replicating M. tuberculosis by one log10: approximately 1.5 μM
[4]
  MIC: >32 µM
  antimicrobial activity: Neither of the compounds displayed antimicrobial activity
  activity: no activity
[5]
  MIC: >32 µM
  antimicrobial activity: Neither of the compounds displayed antimicrobial activity
  activity: no activity
[6]
  MIC: >32 µM
  antimicrobial activity: Neither of the compounds displayed antimicrobial activity
  activity: no activity
[7]
  activity: activity was lower
[8]
  activity: significantly less active
  MIC: >32 µM
[9]
  IC50: > 32 µM
  in vitro mammalian cell toxicity: no in vitro mammalian cell toxicity
  cytotoxicity: No cytoxicity
[10]; H37Rv reference in Table 15
  MIC: 0.37 µM (≈ 0.586 µg/mL)
[10]; H37Rv reference in Table 19
  MIC: 0.16 µM (≈ 0.253 µg/mL)
[10]; [19]
  MIC: 0.16 µM (≈ 0.253 µg/mL)
[11]
  MIC: 0.19 µM (≈ 0.301 µg/mL)
[12]
  MIC: 0.19 µM (≈ 0.301 µg/mL)
[13]
  MIC: 0.09 µM (≈ 0.143 µg/mL)
[14]
  MIC: 0.14 µM (≈ 0.222 µg/mL)
[15]
  MIC: 0.34 µM (≈ 0.539 µg/mL)
[16]
  MIC: 0.37 µM (≈ 0.586 µg/mL)

## NNC(=O)c1ccncc1 [isoniazid]
[17]
  MIC: 0.47 µM (≈ 0.0645 µg/mL)

## CN[C@H](CC(C)C)C(=O)N[C@H]1C(=O)N[C@@H](CC(N)=O)C(=O)N[C@H]2C(=O)N[C@H]3C(=O)N[C@H](C(=O)N[C@H](C(=O)O)c4cc(O)cc(O)c4-c4cc3ccc4O)[C@H](O)c3ccc(c(Cl)c3)Oc3cc2cc(c3O[C@@H]2O[C@H](CO)[C@@H](O)[C@H](O)[C@H]2O[C@H]2C[C@](C)(N)[C@H](O)[C@H](C)O2)Oc2ccc(cc2Cl)[C@H]1O [Vancomycin]
[1]
  Growth in the presence of antibiotics: −
  susceptibility of MJM5123 to the antibiotic: susceptible

## CN[C@@H]1[C@@H](O[C@H]2O[C@H](CO)[C@@H](N)[C@H](O)[C@H]2O)OC2C[C@@H](N)[C@@H](O[C@H]3[C@H](O)[C@@H](O)[C@H](N)C[C@@H]3N)OC2[C@@H]1O (stereo partly shown) [Apramycin]
[1]
  Growth in the presence of antibiotics: −
  susceptibility of MJM5123 to the antibiotic: susceptible

## CCC(C)C(C(=O)NC1C(=O)N(C)C(C(C)O)C(=O)NC(C(C)C)C(=O)N(C)C(CC(C)C)C(=O)NC(C(C)C)C(=O)N(C)C(C(C)C)C(=O)N(C)C(Cc2c[nH]c3cccc(OC)c23)C(=O)NC(C(C)C)C(=O)NC(C(O)c2ccccc2)C(=O)NC(C(C)C)C(=O)OC1C)N(C)C(=O)C(NC(=O)C(C(C)C)N(C)C)C(C)C (stereo not shown) [H-14] (ξNMe2Val-V[NMeI]T[NMeT]V[NMeL]V[NMeV][NMeTrp(4-OMe)]V[X1]V; ester 3-C; configuration not given here)
[2]
  classification from MBC99 versus MIC: bactericidal
  MBC99: 0.34 µM (≈ 0.544 µg/mL)
[3]
  concentration effecting a 99% reduction in viability (MBC under low oxygen): approximately 1.5 μM
  concentration reducing viability of non-replicating M. tuberculosis by one log10: approximately 1.5 μM
[4]
  MIC: >32 µM
  antimicrobial activity: Neither of the compounds displayed antimicrobial activity
  activity: no activity
[5]
  MIC: >32 µM
  antimicrobial activity: Neither of the compounds displayed antimicrobial activity
  activity: no activity
[6]
  MIC: >32 µM
  antimicrobial activity: Neither of the compounds displayed antimicrobial activity
  activity: no activity
[7]
  activity: activity was lower
[8]
  activity: significantly less active
  MIC: >63 µM
[18]; 0.5% BSA
  MIC vs. M. tuberculosis: 0.16 µM (≈ 0.256 µg/mL)
[18]; 4% BSA
  MIC vs. M. tuberculosis: 0.58 µM (≈ 0.928 µg/mL)
[18]; 10% BSA
  MIC vs. M. tuberculosis: 0.36 µM (≈ 0.576 µg/mL)
[9]
  IC50: > 32 µM
  in vitro mammalian cell toxicity: no in vitro mammalian cell toxicity
  cytotoxicity: No cytoxicity
[10]; H37Rv reference in Table 15
  MIC: 0.38 µM (≈ 0.608 µg/mL)
[10]; H37Rv reference in Table 19
  MIC: 0.16 µM (≈ 0.256 µg/mL)
[10]; [19]
  MIC: 0.16 µM (≈ 0.256 µg/mL)
[11]
  MIC: 0.23 µM (≈ 0.368 µg/mL)
[12]
  MIC: 0.29 µM (≈ 0.464 µg/mL)
[13]
  MIC: 0.13 µM (≈ 0.208 µg/mL)
[14]
  MIC: 0.14 µM (≈ 0.224 µg/mL)
[15]
  MIC: 0.36 µM (≈ 0.576 µg/mL)
[16]
  MIC: 0.38 µM (≈ 0.608 µg/mL)

## CO[C@H]1/C=C/O[C@@]2(C)Oc3c(C)c(O)c4c(O)c(c(/C=N/N5CCN(C)CC5)c(O)c4c3C2=O)NC(=O)/C(C)=C\C=C\[C@H](C)[C@H](O)[C@@H](C)[C@@H](O)[C@@H](C)[C@H](OC(C)=O)[C@@H]1C [rifampin]
[17]
  MIC: 0.09 µM (≈ 0.0741 µg/mL)
